# Laboratory results from article PMC5218480 (PLoS ONE, 2017).
# System: MV-4-11 cells
# Assay: Gene expression microarray analysis (Affymetrix PrimeView) and GSEA
# Format: cell-based, human
# Parameters: RFU PODN (11730768_x_at) / Fold change /veh PODN (11730768_x_at) / RFU LINC00158 (11744669_a_at) / Fold change /veh LINC00158 (11744669_a_at) / RFU DUSP10 (11751237_a_at) / Fold change /veh DUSP10 (11751237_a_at) / RFU ID3 (11757404_x_at) / Fold change /veh ID3 (11757404_x_at) / RFU PLEKHG5 (11737974_s_at) / Fold change /veh PLEKHG5 (11737974_s_at) / RFU LRRC4B (11730491_at) / Fold change /veh LRRC4B (11730491_at) / RFU GIMAP4 (11747438_a_at) / Fold change /veh GIMAP4 (11747438_a_at) / RFU KRT8 (11758183_x_at) / Fold change /veh KRT8 (11758183_x_at) / RFU CNN1 (11734310_a_at) / Fold change /veh CNN1 (11734310_a_at) / RFU VPS37D (11726825_at) / Fold change /veh VPS37D (11726825_at) / RFU C10orf10 (11716522_x_at) / Fold change /veh C10orf10 (11716522_x_at) / RFU KIR2DL2 /// KIR2DL4 /// KIR2DL5A /// KIR2DL5B /// KIR2DS1 /// KIR2DS2 /// KIR2DS3 /// KIR2DS4 /// KIR3DL3 /// KIR3DL3 /// KIR3DS1 (11738374_at) / Fold change /veh KIR2DL2 /// KIR2DL4 /// KIR2DL5A /// KIR2DL5B /// KIR2DS1 /// KIR2DS2 /// KIR2DS3 /// KIR2DS4 /// KIR3DL3 /// KIR3DL3 /// KIR3DS1 (11738374_at) / RFU C1QL1 (11718748_at) / Fold change /veh C1QL1 (11718748_at) / RFU TMPRSS4 (11747572_a_at) / Fold change /veh TMPRSS4 (11747572_a_at) / RFU HAMP (11756126_x_at) / Fold change /veh HAMP (11756126_x_at) / RFU RNFT2 (11725882_a_at) / Fold change /veh RNFT2 (11725882_a_at) / RFU NR4A2 (11747474_a_at) / Fold change /veh NR4A2 (11747474_a_at) / RFU ABCC12 (11746883_a_at) / Fold change /veh ABCC12 (11746883_a_at) / RFU TMEM136 (11760407_x_at) / Fold change /veh TMEM136 (11760407_x_at) / RFU CLDN22 /// WWC2 (11732394_at) / Fold change /veh CLDN22 /// WWC2 (11732394_at) / RFU HLA-DPB1 (11760878_x_at) / Fold change /veh HLA-DPB1 (11760878_x_at) / RFU SPINT1 (11716480_a_at) / Fold change /veh SPINT1 (11716480_a_at) / RFU GAP43 (11754022_s_at) / Fold change /veh GAP43 (11754022_s_at) / RFU A4GNT (11735810_at) / Fold change /veh A4GNT (11735810_at) / RFU PRB3 (11715151_x_at) / Fold change /veh PRB3 (11715151_x_at) / RFU TUBB4B (11761932_at) / Fold change /veh TUBB4B (11761932_at) / RFU CAPN14 (11732068_a_at) / Fold change /veh CAPN14 (11732068_a_at) / RFU TMCC2 (11721928_a_at) / Fold change /veh TMCC2 (11721928_a_at) / RFU IRGQ (11745062_a_at) / Fold change /veh IRGQ (11745062_a_at) / RFU FAM174B (11720279_a_at) / Fold change /veh FAM174B (11720279_a_at) / RFU TMPRSS4 (11748680_a_at) / Fold change /veh TMPRSS4 (11748680_a_at) / RFU FAM212B (11763350_a_at) / Fold change /veh FAM212B (11763350_a_at) / RFU PLEKHG5 (11743358_a_at) / Fold change /veh PLEKHG5 (11743358_a_at) / RFU ZSCAN30 (11745921_a_at) / Fold change /veh ZSCAN30 (11745921_a_at) / RFU CMKLR1 (11741424_a_at) / Fold change /veh CMKLR1 (11741424_a_at) / RFU LOC101060620 /// MAPK8IP1 (11723275_at) / Fold change /veh LOC101060620 /// MAPK8IP1 (11723275_at) / RFU SPTSSB (11747773_x_at) / Fold change /veh SPTSSB (11747773_x_at) / RFU PRSS12 (11739890_at) / Fold change /veh PRSS12 (11739890_at) / RFU BIN1 (11741810_x_at) / Fold change /veh BIN1 (11741810_x_at) / RFU WNT11 (11732464_a_at) / Fold change /veh WNT11 (11732464_a_at) / RFU C10orf10 (11716521_a_at) / Fold change /veh C10orf10 (11716521_a_at) / RFU C5orf56 (11738089_at) / Fold change /veh C5orf56 (11738089_at) / RFU CYB561 (11721691_x_at) / Fold change /veh CYB561 (11721691_x_at) / RFU ANKRD19P (11752326_a_at) / Fold change /veh ANKRD19P (11752326_a_at) / RFU OR2T12 /// OR2T33 /// OR2T8 (11738714_s_at) / Fold change /veh OR2T12 /// OR2T33 /// OR2T8 (11738714_s_at) / RFU VCAN (11748164_a_at) / Fold change /veh VCAN (11748164_a_at) / RFU JSRP1 (11732532_at) / Fold change /veh JSRP1 (11732532_at) / RFU KRTAP10-11 (11738290_x_at) / Fold change /veh KRTAP10-11 (11738290_x_at) / RFU MYO3A (11730013_a_at) / Fold change /veh MYO3A (11730013_a_at) / RFU EBF3 (11725865_a_at) / Fold change /veh EBF3 (11725865_a_at) / RFU CAMK2N1 (11719241_x_at) / Fold change /veh CAMK2N1 (11719241_x_at) / RFU C5orf56 (11738088_a_at) / Fold change /veh C5orf56 (11738088_a_at) / RFU OLFML3 (11715873_a_at) / Fold change /veh OLFML3 (11715873_a_at) / RFU LOC100653217 /// NTM (11731650_a_at) / Fold change /veh LOC100653217 /// NTM (11731650_a_at) / RFU MAPK11 (11762145_a_at) / Fold change /veh MAPK11 (11762145_a_at) / RFU FIZ1 (11724087_x_at) / Fold change /veh FIZ1 (11724087_x_at) / RFU OASL (11726364_x_at) / Fold change /veh OASL (11726364_x_at) / RFU SOX15 (11748057_x_at) / Fold change /veh SOX15 (11748057_x_at) / RFU CD79A (11719716_a_at) / Fold change /veh CD79A (11719716_a_at) / RFU HIST1H1D (11736915_at) / Fold change /veh HIST1H1D (11736915_at) / RFU CASKIN2 (11723855_a_at) / Fold change /veh CASKIN2 (11723855_a_at) / RFU LOC730098 (11760151_x_at) / Fold change /veh LOC730098 (11760151_x_at) / RFU OR4N2 (11742367_at) / Fold change /veh OR4N2 (11742367_at) / RFU PRRT2 (11749266_a_at) / Fold change /veh PRRT2 (11749266_a_at) / RFU SNX32 (11753110_a_at) / Fold change /veh SNX32 (11753110_a_at) / RFU CDHR5 (11726645_a_at) / Fold change /veh CDHR5 (11726645_a_at) / RFU RCAN1 (11760418_a_at) / Fold change /veh RCAN1 (11760418_a_at) / RFU FAM167A (11723789_a_at) / Fold change /veh FAM167A (11723789_a_at) / RFU FAM26E (11764081_at) / Fold change /veh FAM26E (11764081_at) / RFU ISYNA1 (11749810_s_at) / Fold change /veh ISYNA1 (11749810_s_at) / RFU ACY1 (11761880_at) / Fold change /veh ACY1 (11761880_at) / RFU 11764098_at / Fold change /veh 11764098_at / RFU SAMD14 (11745864_x_at) / Fold change /veh SAMD14 (11745864_x_at) / RFU NPB (11741838_a_at) / Fold change /veh NPB (11741838_a_at) / RFU TMPRSS6 (11731388_a_at) / Fold change /veh TMPRSS6 (11731388_a_at) / RFU KRTAP10-2 (11738614_at) / Fold change /veh KRTAP10-2 (11738614_at) / RFU ARHGAP8 /// PRR5-ARHGAP8 (11727945_x_at) / Fold change /veh ARHGAP8 /// PRR5-ARHGAP8 (11727945_x_at) / RFU KRTAP5-7 /// NADSYN1 (11734609_at) / Fold change /veh KRTAP5-7 /// NADSYN1 (11734609_at) / RFU RASL12 (11751679_a_at) / Fold change /veh RASL12 (11751679_a_at) / RFU CDKN2B (11736163_a_at) / Fold change /veh CDKN2B (11736163_a_at) / RFU PRF1 (11729649_at) / Fold change /veh PRF1 (11729649_at) / RFU, ZNF638 /// ZNF638-IT1 / Fold change vs veh, ZNF638 /// ZNF638-IT1 / RFU, PANK3 / Fold change vs veh, PANK3 / RFU, SH3YL1 / Fold change vs veh, SH3YL1 / RFU, ZEB2 / Fold change vs veh, ZEB2 / RFU, NRIP1 / Fold change vs veh, NRIP1 / RFU, PTTG1IP / Fold change vs veh, PTTG1IP / RFU, CAPN2 / Fold change vs veh, CAPN2 / RFU, MED14 / Fold change vs veh, MED14 / RFU, SNORA58 / Fold change vs veh, SNORA58 / RFU, C1orf63 / Fold change vs veh, C1orf63 / RFU, LRRFIP1 / Fold change vs veh, LRRFIP1 / RFU, NDUFAF7 / Fold change vs veh, NDUFAF7 / RFU, SLC12A2 / Fold change vs veh, SLC12A2 / RFU, IBTK / Fold change vs veh, IBTK / RFU, ESF1 / Fold change vs veh, ESF1 / Fold change vs veh, TMEM50B / RFU, TAOK1 / Fold change vs veh, TAOK1 / RFU, ACBD3 / Fold change vs veh, ACBD3 / RFU, TMA16 / Fold change vs veh, TMA16 / RFU, RWDD3 / Fold change vs veh, RWDD3 / RFU, BCAT1 / Fold change vs veh, BCAT1 / RFU, EDEM3 / Fold change vs veh, EDEM3 / RFU, TMEM33 / Fold change vs veh, TMEM33 / RFU, WDR75 / Fold change vs veh, WDR75 / RFU, AHCTF1 / Fold change vs veh, AHCTF1 / RFU, TFRC / Fold change vs veh, TFRC / RFU, ZDHHC17 / Fold change vs veh, ZDHHC17 / RFU, NOM1 / Fold change vs veh, NOM1 / RFU, ARL8B / Fold change vs veh, ARL8B / RFU, ZBTB11 / Fold change vs veh, ZBTB11 / RFU, TAMM41 / Fold change vs veh, TAMM41 / RFU, KIAA1704 /// LOC100996395 / Fold change vs veh, KIAA1704 /// LOC100996395 / RFU, ING1 / Fold change vs veh, ING1 / RFU, TRMT61B / Fold change vs veh, TRMT61B / RFU, FUBP3 / Fold change vs veh, FUBP3 / RFU, TP53 / Fold change vs veh, TP53 / RFU, TNKS2 / Fold change vs veh, TNKS2 / RFU, ZFP14 / Fold change vs veh, ZFP14 / RFU, ACTR2 / Fold change vs veh, ACTR2 / RFU, PPP3R1 / Fold change vs veh, PPP3R1 / RFU, PIK3R1 / Fold change vs veh, PIK3R1 / RFU, HNRNPA1 / Fold change vs veh, HNRNPA1 / RFU, RNF170 / Fold change vs veh, RNF170 / RFU, ZNF28 / Fold change vs veh, ZNF28 / RFU, RNGTT / Fold change vs veh, RNGTT / RFU, OGT / Fold change vs veh, OGT / RFU, BRD1 / Fold change vs veh, BRD1 / RFU, MARS / Fold change vs veh, MARS / RFU, ZNF655 / Fold change vs veh, ZNF655 / RFU, FAHD1 / Fold change vs veh, FAHD1 / RFU, BDP1 / Fold change vs veh, BDP1 / RFU, LRRCC1 / Fold change vs veh, LRRCC1 / RFU, ARID1A / Fold change vs veh, ARID1A / RFU, ZNF146 / Fold change vs veh, ZNF146 / RFU, ZNF330 / Fold change vs veh, ZNF330 / RFU, GPN3 / Fold change vs veh, GPN3 / RFU, C9orf123 / Fold change vs veh, C9orf123 / RFU, N4BP2L2 / Fold change vs veh, N4BP2L2 / RFU, ARFIP1 / Fold change vs veh, ARFIP1 / RFU, FAM179B / Fold change vs veh, FAM179B / RFU, BCL10 / Fold change vs veh, BCL10 / RFU, UHRF1BP1L / Fold change vs veh, UHRF1BP1L / RFU, BET1 / Fold change vs veh, BET1 / RFU, CNOT2 / Fold change vs veh, CNOT2 / RFU, ZNF268 / Fold change vs veh, ZNF268 / Fold change vs veh, ZNF507 / RFU, DGCR2 / Fold change vs veh, DGCR2 / RFU, WDSUB1 / Fold change vs veh, WDSUB1 / Fold change vs veh, HSP90B1 /// MIR3652 / RFU, ADSS / Fold change vs veh, ADSS / RFU, GK / Fold change vs veh, GK / RFU, ZNF148 / Fold change vs veh, ZNF148 / RFU, TAF9 / Fold change vs veh, TAF9 / RFU, SLC1A5 / Fold change vs veh, SLC1A5 / RFU, SLMO2 / Fold change vs veh, SLMO2 / RFU, ABCC4 / Fold change vs veh, ABCC4 / RFU, LOC101060439 /// RAP1B / Fold change vs veh, LOC101060439 /// RAP1B / RFU, RFX7 / Fold change vs veh, RFX7 / RFU, GTPBP10 / Fold change vs veh, GTPBP10 / RFU, CNEP1R1 / Fold change vs veh, CNEP1R1 / RFU, BIVM-ERCC5 /// ERCC5 / Fold change vs veh, BIVM-ERCC5 /// ERCC5 / RFU, ILF3 / Fold change vs veh, ILF3 / RFU 11762660_at / Fold change /veh 11762660_at / RFU VCAN (11757783_s_at) / Fold change /veh VCAN (11757783_s_at) / RFU DDX43 (11728927_at) / Fold change /veh DDX43 (11728927_at) / RFU KRT8 (11758188_x_at) / Fold change /veh KRT8 (11758188_x_at) / RFU NKD1 (11759106_at) / Fold change /veh NKD1 (11759106_at) / RFU SRD5A1 (11742802_a_at) / Fold change /veh SRD5A1 (11742802_a_at) / RFU TPSAB1 /// TPSB2 (11721975_s_at) / Fold change /veh TPSAB1 /// TPSB2 (11721975_s_at) / RFU GSTM3 (11746129_a_at) / Fold change /veh GSTM3 (11746129_a_at) / RFU IL23R (11737362_x_at) / Fold change /veh IL23R (11737362_x_at) / RFU TMEM51 (11727254_a_at) / Fold change /veh TMEM51 (11727254_a_at) / RFU PIWIL2 (11732686_x_at) / Fold change /veh PIWIL2 (11732686_x_at) / RFU ORM1 (11744905_x_at) / Fold change /veh ORM1 (11744905_x_at) / RFU CCDC152 (11743942_at) / Fold change /veh CCDC152 (11743942_at) / RFU ECM1 (11717891_a_at) / Fold change /veh ECM1 (11717891_a_at) / RFU IL23R (11748794_a_at) / Fold change /veh IL23R (11748794_a_at) / RFU TNFAIP8L3 (11732012_x_at) / Fold change /veh TNFAIP8L3 (11732012_x_at) / RFU MBOAT4 (11741988_at) / Fold change /veh MBOAT4 (11741988_at) / RFU 11764193_at / Fold change /veh 11764193_at / RFU TMEM53 (11763286_at) / Fold change /veh TMEM53 (11763286_at) / RFU MAGEB2 (11727129_at) / Fold change /veh MAGEB2 (11727129_at) / RFU TMEM200A (11744735_a_at) / Fold change /veh TMEM200A (11744735_a_at) / RFU CCDC152 (11751479_a_at) / Fold change /veh CCDC152 (11751479_a_at) / RFU FAM211A (11726209_a_at) / Fold change /veh FAM211A (11726209_a_at) / RFU RGS16 (11746705_a_at) / Fold change /veh RGS16 (11746705_a_at) / RFU VCAN (11755009_s_at) / Fold change /veh VCAN (11755009_s_at) / RFU RHOB (11743442_s_at) / Fold change /veh RHOB (11743442_s_at) / RFU RGS16 (11720943_a_at) / Fold change /veh RGS16 (11720943_a_at) / RFU RGS16 (11720944_at) / Fold change /veh RGS16 (11720944_at) / RFU, VPS4B / Fold change vs veh, VPS4B / RFU, CREB1 / Fold change vs veh, CREB1 / RFU, DNAJC13 / Fold change vs veh, DNAJC13 / RFU, GNAQ / Fold change vs veh, GNAQ / RFU, CDK5R1 / Fold change vs veh, CDK5R1 / RFU, ZRANB3 / Fold change vs veh, ZRANB3 / RFU, CUL4A / Fold change vs veh, CUL4A / RFU, CCNY / Fold change vs veh, CCNY / RFU, UFL1 / Fold change vs veh, UFL1 / RFU, COG3 / Fold change vs veh, COG3 / RFU, DIAPH2 / Fold change vs veh, DIAPH2 / RFU, SKA2 / Fold change vs veh, SKA2 / RFU, AFF3 / Fold change vs veh, AFF3 / RFU, LMF1 / Fold change vs veh, LMF1 / RFU, IPO11 / Fold change vs veh, IPO11 / RFU, DFFB / Fold change vs veh, DFFB / RFU, FOXP1 / Fold change vs veh, FOXP1 / RFU, CARD8 / Fold change vs veh, CARD8 / RFU, STRN3 / Fold change vs veh, STRN3 / RFU, ADK / Fold change vs veh, ADK / RFU, RASSF2 / Fold change vs veh, RASSF2 / RFU, WIPF1 / Fold change vs veh, WIPF1 / RFU, LARP1B / Fold change vs veh, LARP1B / RFU, RASA1 / Fold change vs veh, RASA1 / RFU, RB1 / Fold change vs veh, RB1 / RFU, PPFIA1 / Fold change vs veh, PPFIA1 / RFU, MAT2A / Fold change vs veh, MAT2A / RFU, CCT5 / Fold change vs veh, CCT5 / RFU, WDR92 / Fold change vs veh, WDR92 / RFU, CUX1 / Fold change vs veh, CUX1 / RFU, TTC7A / Fold change vs veh, TTC7A / RFU, TMEM135 / Fold change vs veh, TMEM135 / RFU, DEPTOR / Fold change vs veh, DEPTOR / RFU, CPM / Fold change vs veh, CPM / RFU, DNAJB6 / Fold change vs veh, DNAJB6 / RFU, CACNA2D3 / Fold change vs veh, CACNA2D3 / RFU, DTX4 / Fold change vs veh, DTX4 / RFU, TFCP2 / Fold change vs veh, TFCP2 / RFU, GMCL1 /// GMCL1P1 / Fold change vs veh, GMCL1 /// GMCL1P1 / RFU, AEBP2 / Fold change vs veh, AEBP2 / RFU, SNHG1 /// SNORD22 /// SNORD25 /// SNORD26 /// SNORD27 /// SNORD28 /// SNORD29 /// SNORD31 / Fold change vs veh, SNHG1 /// SNORD22 /// SNORD25 /// SNORD26 /// SNORD27 /// SNORD28 /// SNORD29 /// SNORD31 / Fold change (Aza/veh), C12orf56 (ProbeSet 11735607_a_at) / Fold change (ACY-1035/veh), C12orf56 (ProbeSet 11735607_a_at) / Fold change (Aza/veh), FGFR1OP (ProbeSet 11751329_s_at) / Fold change (ACY-1035/veh), FGFR1OP (ProbeSet 11751329_s_at) / Fold change (Aza/veh), VPS36 (ProbeSet 11739960_a_at) / Fold change (ACY-1035/veh), VPS36 (ProbeSet 11739960_a_at) / RFU SYPL1 (11715823_x_at) / Fold change /veh SYPL1 (11715823_x_at) / RFU IGFBP7 (11715501_s_at) / Fold change /veh IGFBP7 (11715501_s_at) / RFU REEP3 (11722064_at) / Fold change /veh REEP3 (11722064_at) / RFU IGLL1 (11728026_x_at) / Fold change /veh IGLL1 (11728026_x_at): dose or concentration left out as unconfirmed
# Conditions: MV-4-11 cells, 48 hours
smiles,measurement,value
Nc1ccc(-c2cccs2)cc1NC(=O)c1ccc2c(c1)cc(C1CC1)n2CCN1CCOCC1 [ACY-1035],RFU PLEKHG5 (11743358_a_at),36.52 RFU
